Where a SMILES comes first, the peptide text is derived from it. [ ]: non-standard residue; d: D form.
Tests used:
[1] = test system: PMA-induced ear skin inflammation; experiment: PMA-induced skin dermatitis of rat ears; assay type: in vivo; details: topical
Description: To verify the efficacy of a topical application of API-101.10 in a skin model of inflammation, 10 μl of 0.05% (in acetone) of the irritating agent PMA was applied on ears of 5 weeks old CD-1 male […] (Charles River) to induce contact dermatitis. The right ear received the vehicle only and left ear received the peptide or IL-1Ra analog Kineret® (Amgen). Ten μl of a final concentration of 10^−5M peptide diluted in PEG was applied 45 minutes and 4 hours after the induction of the inflammation with PMA. The commercial analog of IL-1R antagonist (IL-Ra), Kineret® was applied as a positive control at a concentration of 50 μg/10 μl of PEG. The drug was applied with a pipet tip adapted for the viscosity of the solution. Eighteen hours after the peptide treatment animals were sacrificed and ears were cut, weighed and their […] was measured with a caliper. Ear tumefaction (%) was determined: […] where a=thickness of left treated ear and b=thickness of right control ear.

HEK293 cells = experiment: Binding of I125-API-101.10 in HEK293 cells not containing IL-1R
Text: Thymocytes freshly isolated from rat thymus were resuspended at a concentration of 10^7 cell/ml in PBS (phosphate buffered saline) buffer pH 8.0 (reaction buffer) and washed three times with ice-cold reaction buffer. The reaction mixture for each sample contained: 10^6 cells and 10^7 cpm of 125API-101.10. One sample also contained […] of cold API-101.10 peptide. In the negative control HEK-293 cells containing a negligible amount of IL-1R were used. Each sample volume was then raised to 250 μl with reaction buffer. Samples were incubated at room temperature and/or 37° for 45 minutes to allow peptide binding. The non-permeable cross-linker BS3 (Bis(sulfosuccinimidyl)suberate) was then added to a final concentration of 2.5 mM and samples were incubated at 4° C. for 30 minutes to minimize active internalization of BS3 (11.4 Å) (Pierce) (Partis, J. Prot. Chem. 293:263-277, 1983; Cox et al., J. Immunol. 145:1719-1726, 1990; and Knoller et al., J. Biol. Chem. 266:2795-2804, 1991). The reaction was quenched with 20 mM TRIS pH 7.5 for 15 minutes at room temperature. Cells were centrifuged at 4000 rpm for 10 minutes, lysed for 30 minutes on ice with 150 μl of RIPA buffer (50 mM Tris HCl pH7.4; 150 mM NaCl; 1 mM EDTA; 2 mM Na3VO4; 1 mM NaF; 1% NP-40; 0.25% Nadeoxycholate). […] Radioactivity was determined is every cell lysate with a Packard CobraII autogamma counter.

CC(C)C[C@@H](NC(=O)[C@@H](CCC(=O)O)NC(=O)[C@H](NC(=O)[C@H](NC(=O)[C@@H](Cc1ccc(O)cc1)NC(=O)[C@H](N)CCCNC(=N)N)[C@H](C)O)C(C)C)C(=O)N[C@H](C)C(N)=O [API-101.10, RYTVELA] (H-[dR][dY][dT][dV][dE][dL][dA]-NH2; N-terminus and C-terminus assumed)
ear weight compared with PMA-induced inflamed ear ([1]; 10^−5M in PEG): reduction in weight
prevention of ear tumefaction ([1]; 10 μl of 10^−5M in PEG, 45 min and 4 h after PMA): 50%
binding in cells not containing IL-1R (HEK293 cells): does not occur

Reference: patent publication US20110144014A1, “CYTOKINE RECEPTOR MODULATORS AND USES THEREOF” (CENTRE HOSPITALIER UNIVERSITAIRE SAINTE-JUSTINE, priority 2005, published 2011)
